Results: patent US20060153897A1, “Zinc-containing foods” (priority 2001, published 2006)

Tests used:
female and male rats = assay: Acute toxicity test; format: in vivo; conditions: female and male rats, 2, 8 and 15 days after administration of 2,000 mg/kg
Procedure: (§1) Outside the application of GLP, acute toxicity test was carried out for zinc complexes with maltol, picolinic acid, picolinamide, 6-methyl-picolinic acid, L-threonine and L-valine.

[1] = tested on: Escherichia coli WP 2 uvr A; assay: Mutagenicity test (Ames) using microorganisms; format: cell-based; conditions: compared with solvent control
Excerpt: (§2) As a mutagenicity test (Ames) using microorganisms, mutation-inducing ability of zinc complexes with maltol, picolinic acid, picolinamide, 6-methyl-picolinic acid, L-threonine and L-valine was examined using Salmonella typhimurium TA 100, TA 1535, TA 98 and TA 1537 and Escherichia coli WP 2 uvr A.

[2] = tested on: Salmonella typhimurium TA 100, TA 1535, TA 98 and TA 1537; assay: Mutagenicity test (Ames) using microorganisms; format: cell-based; conditions: for mutation-inducing ability: Salmonella typhimurium TA 100, TA 1535, TA 98, TA 1537, compared with solvent control; for growth inhibition: high concentrations
Excerpt: as §2

Acute toxicity test = format: in vivo; conditions: rat, in vivo
Procedure: as §1

[3] = ligand per se, strain not stated

Cc1cccc(C(=O)[O-])n1.Cc1cccc(C(=O)[O-])n1.[Zn+2] [bis(6-methylpicolinic acid)/zinc complex]
change in normal state and autopsy compared with solvent control group (female and male rats): no special change
mutation-inducing ability [1]: no mutation-inducing ability
mutation-inducing ability [2]: no mutation-inducing ability

Cc1occc(=O)c1O [maltol, reference compound]
LD50 at 15 days (Acute toxicity test; female): 1590 mg/kg
LD50 at 15 days (Acute toxicity test; male): 1680 mg/kg
growth inhibition [2, 3]: growth inhibition at high concentrations

O=C(O)c1ccccn1 [picolinic acid, reference compound]
growth inhibition [2, 3]: growth inhibition at high concentrations

CC(C)[C@H](N)C(=O)[O-].CC(C)[C@H](N)C(=O)[O-].[Zn+2] [zinc complex with L-valine]
change in normal state and autopsy compared with solvent control group (female and male rats): no special change
mutation-inducing ability [1]: no mutation-inducing ability
mutation-inducing ability [2]: no mutation-inducing ability

O=C([O-])c1ccccn1.O=C([O-])c1ccccn1.[Zn+2] [zinc complex with picolinic acid]
change in normal state and autopsy compared with solvent control group (female and male rats): no special change
mutation-inducing ability [2]: very weakly positive
growth inhibition ([2]; TA 98, TA 1537 strains): growth inhibition at high concentrations

bis(maltol)/zinc complex [zinc complex with maltol]
mutation-inducing ability [2]: very weakly positive
growth inhibition ([2]; TA 1535 strain): growth inhibition at high concentrations
